Measured values from paper PMC4177008 (Organic & biomolecular chemistry, 2014).
“Also recorded” adds a separate entry of the source.

Experiments:
[1] = tested on: influenza virus A/Udorn/72 strain (H3N2); experiment: MDCK cell-based plaque reduction assay, influenza A/Udorn/72; conditions: for anti-influenza inhibitory activity (result in words) / fold improvement of inhibitory activity over HTS hit P114F5 / inhibition to influenza virus at 100 μM: A/Udorn/72 (H3N2); for anti-influenza inhibitory activity (result in words): authors' description of the EC50 data; for fold improvement of inhibitory activity over HTS hit P114F5: compared to P114F5; for EC50: influenza virus A/Udorn/72 strain (H3N2), 50% reduction of plaques in MDCK cells; for inhibition to influenza virus at 100 μM: at a concentration of 100 μM
[2] = tested on: Influenza A/PR/8/34 (H1N1); experiment: MDCK cell-based plaque reduction assay, influenza A/PR/8/34; conditions: Influenza A virus, H1N1|PR/8, MDCK
[3] = tested on: Influenza A1/Jingfang 86-1(H1N1); experiment: MDCK cell-based plaque reduction assay, influenza A1/Jingfang 86-1; conditions: Influenza A virus
[4] = tested on: Influenza A3/Lufang 93-1(H3N2); experiment: MDCK cell-based plaque reduction assay, influenza A3/Lufang 93-1; conditions: Influenza A virus
Influenza B/Shenzhen/747 = experiment: MDCK cell-based plaque reduction assay, influenza B/Shenzhen/747; conditions: Influenza B virus
[5] = tested on: influenza A/udorn/72 (H3N2); format: cell-based, influenza A virus
[6] = tested on: Madin-Darby canine kidney (MDCK) cells; experiment: MTT cytotoxicity assay in MDCK cells; format: cell-based; conditions: 24 h, mean ± SD of triplicates
[7] = tested on: human embryonic kidney cells (HEK293 cells); experiment: MTT cytotoxicity assay in HEK293 cells; format: cell-based; conditions: HEK 293 cells, 24 h, mean ± SD of triplicates
[8] = tested on: human epithelial carcinoma cell line (HeLa cells); experiment: MTT cytotoxicity assay in HeLa cells; format: cell-based; conditions: 24 h, mean ± SD of triplicates
[9] = tested on: MDCK cells, HEK293 cells and HeLa cells; experiment: MTT cytotoxicity, three cell lines; format: cell-based

CCOC(=O)N1CCC(Oc2ccnc3ccccc23)CC1 [Compound 6a, Ethyl 4-(quinolin-4-yloxy)piperidine-1-carboxylate]
anti-influenza inhibitory activity (result in words) [1]: good inhibitory activity
fold improvement of inhibitory activity over HTS hit P114F5 [1]: 6 fold

c1ccc2c(OC3CCNCC3)ccnc2c1 [Compound 11h, 4-(Piperidin-4-yloxy)quinolone]
anti-influenza inhibitory activity (result in words) [1]: significantly reduced the activity
EC50 [1]: > 100 µM

CCOC(=O)N1CCC(Sc2ccnc3ccccc23)CC1 [Compound P114F5, ethyl 4-(quinolin-4-ylthio)piperidine-1-carboxylate]
EC50 [2]: 8.78 µM
EC50 [3]: 9.05 µM
EC50 [4]: 11.7 µM
EC50 (Influenza B/Shenzhen/747): 10.9 µM
time-of-addition effect [5]: most effective as an inhibitor of influenza virus; also recorded: no significant anti-influenza activities were observed

CCOC(=O)N1CCC(Sc2ccncc2)CC1 [Compound 1c, Ethyl 4-(pyridin-4-ylthio)piperidine-1-carboxylate]
inhibition to influenza virus at 100 μM [1]: did not show any inhibition

CC(C)(C)OC(=O)N[C@@H](CC(N)=O)C(=O)N1CCC(Sc2ccnc3ccccc23)CC1 [Compound 12b, (S)-tert-Butyl (4-amino-1,4-dioxo-1-(4-(quinolin-4-ylthio)piperi-din-1-yl)butan-2-yl)carbamate]
EC50 [1]: > 100 µM

CCOC(=O)N1CCC(Sc2cc(-c3ccccc3)nc3ccccc23)CC1 [Compound 1a, Ethyl 4-((2-phenylquinolin-4-yl)thio)piperidine-1-carboxylate]
inhibition to influenza virus at 100 μM [1]: did not show any inhibition

CCOC(=O)N1CCC(Sc2ccc(OC)cc2)CC1 [Compound 1e, Ethyl 4-((4-methoxyphenyl)thio)piperidine-1-carboxylate]
anti-influenza inhibitory activity (result in words) [1]: moderate inhibitory activities

c1ccc2c(OC3CCOCC3)ccnc2c1 [Compound 11j, 4-((Tetrahydro-2H-pyran-4-yl)oxy)quinolone]
EC50 [1]: > 100 µM

CCOC(=O)N1CCC(Sc2cccc3ccccc23)CC1 [Compound 1f, Ethyl 4-(naphthalen-1-ylthio)piperidine-1-carboxylate]
anti-influenza inhibitory activity (result in words) [1]: moderate inhibitory activities

CCOC(=O)N1CCC(Nc2ccnc3ccccc23)CC1 [Compound 6b, Ethyl 4-(quinolin-4-ylamino)piperidine-1-carboxylate]
anti-influenza inhibitory activity (result in words) [1]: moderate inhibitory activity

CCOC(=O)N1CCC(Sc2cc(Cl)nc3ccccc23)CC1 [Compound 1b, Ethyl 4-((2-chloroquinolin-4-yl)thio)piperidine-1-carboxylate]
anti-influenza inhibitory activity (result in words) [1]: moderate inhibitory activities

CC(C)(C)OC(=O)N[C@@H](Cc1ccccc1)C(=O)N1CCC(Sc2ccnc3ccccc23)CC1 [Compound 12a, (S)-tert-Bbutyl (1-oxo-3-phenyl-1-(4-(quinolin-4-ylthio)piperidin-1-yl)propan-2-yl)carbamate]
EC50 [1]: 15.5 µM

CCOC(=O)N1CCC(Sc2ccc(C)cc2)CC1 [Compound 1d, Ethyl 4-(p-tolylthio)piperidine-1-carboxylate]
anti-influenza inhibitory activity (result in words) [1]: moderate inhibitory activities

CC(C)(C)OC(=O)N1CCC(Oc2ccnc3ccccc23)CC1 [Compound 11e, tert-Butyl 4-(quinolin-4-yloxy)piperidine-1-carboxylate]
fold improvement of inhibitory activity over HTS hit P114F5 [1]: 100 fold
EC50 [2]: 0.07 µM
EC50 [3]: 0.1 µM
EC50 [4]: 0.06 µM
EC50 (Influenza B/Shenzhen/747): 0.05 µM
MDL50 (μM) mean ± SD [6]: 10061.92 ± 235.86 µM
MDL50 (μM) mean ± SD [7]: 8101.97 ± 473.16 µM
MDL50 (μM) mean ± SD [8]: 8850.21 ± 406.99 µM
cytotoxicity (result in words) ([9]; any of the cell lines, up to a concentration of millimolar (mM) range, MTT): did not exhibit cytotoxicity; also recorded: did not observe cytotoxicity
selectivity index value (SI = MLD50/EC50) ([9]; based on cytotoxicity measured by MTT assays of three cell lines): over 160,000
